Test results from patent US20250304576A1 (Cancer Research Technology Limited, priority 2022, published 2025).

Columns and labels:
Recombinant IKKα = molecular target: T1, Recombinant IKKα (Homo sapiens, UniProt O15111); test: DELFIA IKKα kinase assay (apparent Ki, Cheng-Prusoff); type: biochemical; settings: non-italicised figure: DELFIA assay
T1 construct: purchased Millipore, Dundee, UK
T1 sequence (O15111 1-745): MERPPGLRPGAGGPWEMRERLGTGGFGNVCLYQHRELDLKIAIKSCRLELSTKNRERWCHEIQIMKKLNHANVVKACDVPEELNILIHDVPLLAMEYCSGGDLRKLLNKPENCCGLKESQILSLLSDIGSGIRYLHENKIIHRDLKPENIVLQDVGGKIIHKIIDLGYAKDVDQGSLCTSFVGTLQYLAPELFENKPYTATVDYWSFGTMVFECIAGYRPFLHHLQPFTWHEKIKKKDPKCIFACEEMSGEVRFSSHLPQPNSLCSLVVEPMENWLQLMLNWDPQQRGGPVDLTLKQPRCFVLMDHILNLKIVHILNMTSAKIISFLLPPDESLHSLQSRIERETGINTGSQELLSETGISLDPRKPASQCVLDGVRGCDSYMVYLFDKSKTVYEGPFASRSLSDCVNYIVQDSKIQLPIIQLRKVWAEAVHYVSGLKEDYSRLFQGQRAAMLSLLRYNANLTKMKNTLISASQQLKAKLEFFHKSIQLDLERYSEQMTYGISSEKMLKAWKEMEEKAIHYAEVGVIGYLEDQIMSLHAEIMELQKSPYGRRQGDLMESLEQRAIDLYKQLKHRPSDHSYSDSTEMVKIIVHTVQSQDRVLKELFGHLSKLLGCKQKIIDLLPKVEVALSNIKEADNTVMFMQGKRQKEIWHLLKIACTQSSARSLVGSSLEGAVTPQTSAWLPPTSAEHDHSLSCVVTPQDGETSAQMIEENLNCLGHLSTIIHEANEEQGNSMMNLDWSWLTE
Procedure, shortened: (§1)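 DELFIA time-resolved fluorescence (ex 340/em 615 nm) quantified phosphorylation of a biotinylated IκB-α Ser32 peptide (0.375 μM) by 37 nM recombinant IKKα or IKKβ. Reactions used 40 μM ATP, Tris pH 7.5 buffer with MgCl2, DTT and BSA, 60 min at 30° C. Cheng-Prusoff equation gave apparent Ki.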

Recombinant IKKβ = molecular target: T2, Recombinant IKKβ (Homo sapiens, UniProt O14920); test: DELFIA IKKβ kinase assay (apparent Ki, Cheng-Prusoff); type: biochemical; settings: non-italicised figure: DELFIA assay
T2 construct: purchased Millipore, Dundee, UK
T2 sequence (O14920 1-756): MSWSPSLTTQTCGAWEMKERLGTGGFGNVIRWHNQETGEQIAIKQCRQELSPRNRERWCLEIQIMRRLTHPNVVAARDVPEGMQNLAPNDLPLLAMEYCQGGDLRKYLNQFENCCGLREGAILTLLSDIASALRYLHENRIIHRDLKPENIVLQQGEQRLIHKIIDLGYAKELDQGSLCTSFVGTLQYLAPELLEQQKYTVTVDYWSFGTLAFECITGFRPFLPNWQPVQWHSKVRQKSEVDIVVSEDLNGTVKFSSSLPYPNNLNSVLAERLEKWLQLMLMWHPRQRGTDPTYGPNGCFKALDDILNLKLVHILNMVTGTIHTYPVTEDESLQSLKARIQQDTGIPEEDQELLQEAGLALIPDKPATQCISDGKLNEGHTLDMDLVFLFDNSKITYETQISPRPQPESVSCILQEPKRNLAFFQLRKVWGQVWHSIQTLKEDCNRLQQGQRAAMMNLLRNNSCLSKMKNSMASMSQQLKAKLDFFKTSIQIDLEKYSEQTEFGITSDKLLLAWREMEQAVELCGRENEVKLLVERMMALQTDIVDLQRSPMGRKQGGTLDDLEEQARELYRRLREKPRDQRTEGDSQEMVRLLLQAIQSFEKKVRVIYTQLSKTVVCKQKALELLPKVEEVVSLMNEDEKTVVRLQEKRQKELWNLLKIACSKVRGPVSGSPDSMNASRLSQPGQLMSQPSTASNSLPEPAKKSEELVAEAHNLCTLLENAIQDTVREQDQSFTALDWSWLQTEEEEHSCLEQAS
Procedure, shortened: as §1

Ki (Recombinant IKKα) [nM] | Ki (Recombinant IKKβ) [nM] | Structure (SMILES)
114 | 1680 | Nc1cc(-c2cc(-c3cccnc3)c3[nH]nc(N)c3c2)ccn1 [Example 127]
35 | 1300 | Nc1cc(-c2cc(-c3ccncc3)c3[nH]nc(N)c3c2)ccn1 [Example 128, 5-(2-Aminopyridin-4-yl)-7-(pyridin-4-yl)-1H-indazol-3-amine]
43 | 612 | Nc1cc(-c2cc(-c3ccsc3)c3[nH]nc(N)c3c2)ccn1 [Example 130, 5-(2-Aminopyridin-4-yl)-7-(thiophen-3-yl)-1H-indazol-3-amine]
21 | 224 | Nc1cc(-c2cc(-c3cccs3)c3[nH]nc(N)c3c2)ccn1 [Example 131, 5-(2-Aminopyridin-4-yl)-7-(thiophen-2-yl)-1H-indazol-3-amine]
26 | 316 | Nc1cc(-c2cc(-c3cncs3)c3[nH]nc(N)c3c2)ccn1 [Example 132, 5-(2-Aminopyridin-4-yl)-7-(thiazol-5yl)-1H-indazol-3-amine]
46 | 412 | Nc1cc(-c2cc(-c3ccn[nH]3)c3[nH]nc(N)c3c2)ccn1 [Example 133, 5-(2-Aminopyridin-4-yl)-7-(1H-pyrazol-5-yl)-1H-indazol-3-amine]
3 | 300 | CC(C)C#Cc1cc(-c2ccnc(N)c2)cc2c(N)n[nH]c12 [Example 134, 5-(2-Aminopyridin-4-yl)-7-(3-methylbut-1-yn-1-yl)-1H-indazol-3-amine]
81 | 5030 | Nc1cc(-c2cc(C#Cc3ccccc3)c3[nH]nc(N)c3c2)ccn1 [Example 138, 5-(2-Aminopyridin-4-yl)-7-(phenylethynyl)-1H-indazol-3-amine]
186 | 4610 | Nc1cc(-c2cc(C#CCCO)c3[nH]nc(N)c3c2)ccn1 [Example 139, 4-(3-Amino-5-(2-aminopyridin-4-yl)-1H-indazol-7-yl)but-3-yn-1-ol]
14 | 380 | CC1(C#Cc2cc(-c3ccnc(N)c3)cc3c(N)n[nH]c23)COC1 [Example 141, 5-(2-Aminopyridin-4-yl)-7-((3-methyloxetan-3-yl)ethynyl)-1H-indazol-3-amine]
20 | 700 | Nc1cc(-c2cc(C#CC3CCOCC3)c3[nH]nc(N)c3c2)ccn1 [Example 142, 5-(2-Aminopyridin-4-yl)-7-((tetrahydro-2H-pyran-4-yl)ethynyl)-1H-indazol-3-amine]
15 | 318 | CC(C)(C)CCc1cc(-c2ccnc(N)c2)cc2c(N)n[nH]c12 [Example 144, 5-(2-Aminopyridin-4-yl)-7-(3,3-dimethylbutyl)-1H-indazol-3-amine]
23 | 2330 | CC(C)(C)C#Cc1cc(-c2cc(N)ncc2F)cc2c(N)n[nH]c12 [Example 148, 5-(2-Amino-5-fluoropyridin-4-yl)-7-(3,3-dimethylbut-1-yn-1-yl)-1H-indazol-3-amine]
8 | 220 | CC(C)(C)C#Cc1cc(-c2ccnc(N)c2F)cc2c(N)n[nH]c12 [Example 149, 5-(2-Amino-3-fluoropyridin-4-yl)-7-(3,3-dimethylbut-1-yn-1-yl)-1H-indazol-3-amine]
4 | 100 | CC(C)(C)C#Cc1cc(-c2ccnc(NC3CC3)c2)cc2c(N)n[nH]c12 [Example 153, 5-(2-(Cyclopropylamino)pyridine-4-yl)-7-(3,3-dimethylbut-1-yn-1-yl)-1H-indazol-3-amine]
120 | 1690 | CC(C)(C)C#Cc1cc(-c2ccnc(NC3CCC3)c2)cc2c(N)n[nH]c12 [Example 154, 5-(2-(Cyclobutylamino)pyridin-4-yl)-7-(3,3-dimethylbut-1-yn-1-yl)-1H-indazol-3-amine]
15 | 784 | CC(C)(C)C#Cc1cc(-c2ccnc(NC3COC3)c2)cc2c(N)n[nH]c12 [Example 155, 7-(3,3-Dimethylbut-1-yn-1-yl)-5-(2-(oxetan-3-ylamino)pyridin-4-yl)-1H-indazol-3-amine]
141 | 2800 | CC(C)(C)C#Cc1cc(-c2ccnc(NCC3CC3)c2)cc2c(N)n[nH]c12 [Example 157, 5-(2-((Cyclopropylmethyl)amino)pyridin-4-yl)-7-(3,3-dimethylbut-1-yn-1-yl)-1H-indazol-3-amine]
22 | 1960 | CC(C)(C)C#Cc1cc(-c2ccnc(NCCC#N)c2)cc2c(N)n[nH]c12 [Example 159, 3-((4-(3-Amino-7-(3,3-dimethylbut-1-yn-1-yl)-1H-indazol-5-yl)pyridin-2-yl)amino)propanenitrile]
8 | 1340 | CC(C)(C)C#Cc1cc(-c2ccnc(NCCO)c2)cc2c(N)n[nH]c12 [Example 160, 2-((4-(3-Amino-7-(3,3-dimethylbut-1-yn-1-yl)-1H-indazol-5-yl)pyridin-2-yl)amino)ethan-1-ol]
128 | 7610 | CC(C)(C)C#Cc1cc(-c2ccnc(NCCN)c2)cc2c(N)n[nH]c12 [Example 161, N^1-(4-(3-Amino-7-(3,3-dimethylbut-1-yn-1-yl)-1H-indazol-5-yl)pyridin-2-yl)ethane-1,2-diamine]
35 | 1110 | COCCNc1cc(-c2cc(C#CC(C)(C)C)c3[nH]nc(N)c3c2)ccn1 [Example 162, 7-(3,3-dimethylbut-1-yn-1-yl)-5-(2-((2-methoxyethyl)amino)pyridin-4-yl)-1H-indazol-3-amine]
> 3000 | > 30000 | COCCCNc1cc(-c2cc(C#CC(C)(C)C)c3[nH]nc(N)c3c2)ccn1 [Example 163, 7-(3,3-Dimethylbut-1-yn-1-yl)-5-(2-((3-methoxypropyl)amino)pyridine-4-yl)-1H-indazol-3-amine]
15 | 350 | CC(=O)Nc1cc(-c2cc(C#CC(C)(C)C)c3[nH]nc(N)c3c2)ccn1 [Example 164, N-(4-(3-Amino-7-(3,3-dimethylbut-1-yn-1-yl)-1H-indazol-5-yl)pyridin-2-yl)acetamide]
7 | 780 | CCC(=O)Nc1cc(-c2cc(C#CC(C)(C)C)c3[nH]nc(N)c3c2)ccn1 [Example 165, N-(4-(3-Amino-7-(3,3-dimethylbut-1-yn-1-yl)-1H-indazol-5-yl)pyridin-2-yl)propionamide]
15 | 1110 | CC(C)(C)C#Cc1cc(-c2ccnc(NC(=O)C3CC3)c2)cc2c(N)n[nH]c12 [Example 167, N-(4-(3-Amino-7-(3,3-dimethylbut-1-yn-1-yl)-1H-indazol-5-yl)pyridin-2-yl)cyclopropane carboxamide]
273 | 2580 | CC(C)C(=O)Nc1cc(-c2cc(C#CC(C)(C)C)c3[nH]nc(N)c3c2)ccn1 [Example 168, N-(4-(3-Amino-7-(3,3-dimethylbut-1-yn-1-yl)-1H-indazol-5-yl)pyridin-2-yl)isobutyramide]
26 | 1550 | CC(C)(C)C#Cc1cc(-c2ccnc(NC(=O)CC3CC3)c2)cc2c(N)n[nH]c12 [Example 170, N-(4-(3-Amino-7-(3,3-dimethylbut-1-yn-1-yl)-1H-indazol-5-yl)pyridin-2-yl)-2-cyclopropylacetamide]
122 | 5680 | CC(C)CC(=O)Nc1cc(-c2cc(C#CC(C)(C)C)c3[nH]nc(N)c3c2)ccn1 [Example 171, N-(4-(3-Amino-7-(3,3-dimethylbut-1-yn-1-yl)-1H-indazol-5-yl)pyridine-2-yl)-3-methylbutanamide]
